Assays:
[1] = tested on: Wnt activity (SW480 colon carcinoma cells stably expressing the Sp5-Luc reporter gene); assay: Sp5-Luc reporter gene screening assay for Wnt activity; format: cell-based; conditions: Homo sapiens
Method in brief: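 The SW480 cells carry a lentiviral luciferase reporter driven by a Sp5 promoter with eight TCF/LEF sites. They were plated at 10,000 cells/well in 10% FCS overnight, then pinned with 50 nl of 3-fold dilutions (10 mM top source concentration) into 50 μl.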

[2] = tested on: primary human fibroblasts derived from IPF patients (LL29 cells); assay: Inhibition of the fibrotic process in TGF-β1 treated IPF patient fibroblasts (αSMA staining); format: cell-based; conditions: Fibroblast, 96 h, LL29 cells treated with TGF-β1 (20 ng/mL), 4 days, read-out: Inhibition of fibrosis EC50
Description: The above synthesized compounds were screened using primary human fibroblasts (derived from IPF patients) treated with TGF-β1 to determine their ability to inhibit the fibrotic process.
Primary human fibroblasts derived from IPF patients (LL29 cells) [^1Xiaoqiu Liu, et. al., “Fibrotic Lung Fibroblasts Show Blunted Inhibition by cAMP Due to Deficient cAMP Response Element-Binding Protein Phosphorylation”, Journal of Pharmacology and Experimental Therapeutics (2005), 315(2), 678-687; ^2Watts, K. L., et. al., “RhoA signaling modulates cyclin D1 expression in human lung fibroblasts; implications for idiopathic pulmonary fibrosis”, Respiratory Research (2006), 7(1), 88] were obtained from American Type Culture Collection (ATCC) and expanded in F12 medium supplemented with 15% Fetal Bovine Serum and Penicillin/Streptomycin.
Each compound was dissolved in DMSO as a 10 mM stock and used to prepare compound source plates. Serial dilution (1:2, 11-point dose-response curves from 10 μM to 1.87 nM) and compound transfer was performed using the ECHO 550 (Labcyte, Sunnyvale, Calif.) into 384-well clear bottom assay plates (Greiner Bio-One) with appropriate DMSO backfill for a final DMSO concentration of 0.1%. LL29 cells were plated at 1,500 cells/well in 80 μl/well F12 medium supplemented with 1% Fetal Bovine Serum. One hour after addition of the cells, TGF-β1 (Peprotech; 20 ng/mL) was added to the plates to induce fibrosis (ref. 1 and 2 above). Wells treated with TGF-β1 and containing DMSO were used as controls. Cells were incubated at 37° C. and 5% CO2 for 4 days. Following incubation for 4 days, SYTOX green nucleic acid stain (Life Technologies [Thermo Fisher Scientific]) was added to the wells at a final concentration of 1 uM and incubated at room temperature for 30 min. Cells were then fixed using 4% formaldehyde (Electron Microscopy Sciences), washed 3 times with PBS followed by blocking and permeabilization using 3% Bovine Serum Albumin (BSA; Sigma) and 0.3% Triton X-100 (Sigma) in PBS. Cells were then stained with antibody specific to α-smooth muscle actin (αSMA; Abcam) (ref. 1 and 2 above) in 3% Bovine Serum Albumin (BSA; Sigma) and 0.3% Triton X-100 (Sigma) in PBS, and incubated overnight at 4° C. Cells were then washed 3 times with PBS, followed by incubation with Alexa Flor-647 conjugated secondary antibody (Life Technologies [Thermo Fisher Scientific]) and DAPI at room temperature for 1 hour. Cells were then washed 3 times with PBS and plates were sealed for imaging. αSMA staining was imaged by excitation at 630 nm and emission at 665 nm and quantified using the Compartmental Analysis program on the CellInsight CX5 (Thermo Scientific). Dead or apoptotic cells were excluded from analysis based on positive SYTOX green staining. % of total cells positive for αSMA were counted in each well and normalized to the average of 11 wells treated with TGF-β1 on the same plate using Dotmatics' Studies Software. The normalized averages (fold change over untreated) of 3 replicate wells for each compound concentration were used to create dose-responses curves and EC50 values were calculated using non-linear regression curve fit in the Dotmatics' Studies Software. The EC50 values are reported.

Row | SMILES | IC50 [1] [nM] | EC50 [2] [nM]
1 | c1cc(-c2ccoc2)c2nc(-c3n[nH]c4ncc(-c5cncc(CNCC6CCCC6)c5)cc34)[nH]c2n1 [Compound 282, 1-Cyclopentyl-N-((5-(3-(7-(furan-3-yl)-3H-imidazo[4,5-b]pyridin-2-yl)-1H-pyrazolo[3,4-b]pyridin-5-yl)pyridin-3-yl)methyl)methanamine] | > 10000 | ≥ 9990
2 | Fc1cccc(-c2ccnc3[nH]c(-c4n[nH]c5ncc(C6=CCNCC6)cc45)nc23)c1 [Compound 910, 3-(7-(3-Fluorophenyl)-3H-imidazo[4,5-b]pyridin-2-yl)-5-(1,2,3,6-tetrahydropyridin-4-yl)-1H-pyrazolo[3,4-b]pyridine] | > 10000 | ≥ 9990
3 | CC(C)Nc1cncc(-c2cnc3[nH]nc(-c4nc5c(-c6ccoc6)ccnc5[nH]4)c3c2)c1 [Compound 270, 5-(3-(7-(Furan-3-yl)-3H-imidazo[4,5-b]pyridin-2-yl)-1H-pyrazolo[3,4-b]pyridin-5-yl)-N-isopropylpyridin-3-amine] | 44.3 | 786
4 | O=C(Nc1cncc(-c2cnc3[nH]nc(-c4nc5c(-c6ccncc6)ccnc5[nH]4)c3c2)c1)C1CCCCC1 [Compound 106, N-(5-(3-(7-(Pyridin-4-yl)-3H-imidazo[4,5-b]pyridin-2-yl)-1H-pyrazolo[3,4-b]pyridin-5-yl)pyridin-3-yl)cyclohexanecarboxamide] | > 10000 | ≥ 9990
5 | Cc1ccncc1-c1cnc2[nH]nc(-c3nc4c(-c5ccsc5)ccnc4[nH]3)c2c1 [Compound 237, 5-(4-Methylpyridin-3-yl)-3-(7-(thiophen-3-yl)-3H-imidazo[4,5-b]pyridin-2-yl)-1H-pyrazolo[3,4-b]pyridine] | 21.6 | 282
6 | COc1cncc(-c2cnc3[nH]nc(-c4nc5c(-c6cccc(F)c6)ccnc5[nH]4)c3c2)c1 [Compound 920, 3-(7-(3-Fluorophenyl)-3H-imidazo[4,5-b]pyridin-2-yl)-5-(5-methoxypyridin-3-yl)-1H-pyrazolo[3,4-b]pyridine] | 1050 | ≤ 9
7 | c1cncc(-c2cnc3[nH]nc(-c4nc5cccnc5[nH]4)c3c2)c1 [Compound 212, 3-(3H-Imidazo[4,5-b]pyridin-2-yl)-5-(pyridin-3-yl)-1H-pyrazolo[3,4-b]pyridine] | 214 | 501
8 | O=C(Nc1cncc(-c2cnc3[nH]nc(-c4nc5c(-c6cccs6)ccnc5[nH]4)c3c2)c1)C1CC1 [Compound 303, N-(5-(3-(7-(Thiophen-2-yl)-3H-imidazo[4,5-b]pyridin-2-yl)-1H-pyrazolo[3,4-b]pyridin-5-yl)pyridin-3-yl)cyclopropanecarboxamide] | 7.7 | ≥ 9990
9 | CN1CCN(c2ccnc3[nH]c(-c4n[nH]c5ncc(-c6cncc(N)c6)cc45)nc23)CC1 [Compound 186, 5-(3-(7-(4-Methylpiperazin-1-yl)-3H-imidazo[4,5-b]pyridin-2-yl)-1H-pyrazolo[3,4-b]pyridin-5-yl)pyridin-3-amine] | > 10000 | ≥ 9990

Continued, in another order:

Row | IC50 [1] [nM] | SMILES | EC50 [2] [nM]
10 | > 10000 | CN(C)Cc1cncc(-c2cnc3[nH]nc(-c4nc5c(-c6cccc(F)c6)ccnc5[nH]4)c3c2)c1 [Compound 10, 1-(5-(3-(7-(3-Fluorophenyl)-3H-imidazo[4,5-b]pyridin-2-yl)-1H-pyrazolo[3,4-b]pyridin-5-yl)pyridin-3-yl)-N,N-dimethylmethanamine] | 2550
11 | 144 | Fc1ccc(-c2ccnc3[nH]c(-c4n[nH]c5ncc(-c6cncc(CN7CCCC7)c6)cc45)nc23)cc1 [Compound 33, 3-(7-(4-Fluorophenyl)-3H-imidazo[4,5-b]pyridin-2-yl)-5-(5-(pyrrolidin-1-ylmethyl)pyridin-3-yl)-1H-pyrazolo[3,4-b]pyridine] | 7800
12 | > 10000 | Fc1cccc(-c2ccnc3[nH]c(-c4n[nH]c5ncc(C6CCNCC6)cc45)nc23)c1 [Compound 909, 3-(7-(3-Fluorophenyl)-3H-imidazo[4,5-b]pyridin-2-yl)-5-(piperidin-4-yl)-1H-pyrazolo[3,4-b]pyridine] | ≥ 9990
13 | 2800 | CN(C)Cc1cncc(-c2cnc3[nH]nc(-c4nc5c(N6CCCCC6)ccnc5[nH]4)c3c2)c1 [Compound 145, N,N-Dimethyl-1-(5-(3-(7-(piperidin-1-yl)-3H-imidazo[4,5-b]pyridin-2-yl)-1H-pyrazolo[3,4-b]pyridin-5-yl)pyridin-3-yl)methanamine] | 1440
14 | 633 | c1ccc(-c2ccnc3[nH]c(-c4n[nH]c5ncc(-c6cncc(CNCC7CCCC7)c6)cc45)nc23)nc1 [Compound 130, 1-Cyclopentyl-N-((5-(3-(7-(pyridin-2-yl)-3H-imidazo[4,5-b]pyridin-2-yl)-1H-pyrazolo[3,4-b]pyridin-5-yl)pyridin-3-yl)methyl)methanamine] | ≤ 9
15 | 247 | O=C(Nc1cncc(-c2cnc3[nH]nc(-c4nc5c(N6CCCCC6)ccnc5[nH]4)c3c2)c1)C1CC1 [Compound 151, N-(5-(3-(7-(Piperidin-1-yl)-3H-imidazo[4,5-b]pyridin-2-yl)-1H-pyrazolo[3,4-b]pyridin-5-yl)pyridin-3-yl)cyclopropanecarboxamide] | 414
16 | 3990 | CN(C)CC(=O)Nc1cncc(-c2cnc3[nH]nc(-c4nc5c(-c6cccc(F)c6)ccnc5[nH]4)c3c2)c1 [Compound 1409, 2-(Dimethylamino)-N-(5-(3-(7-(3-fluorophenyl)-3H-imidazo[4,5-b]pyridin-2-yl)-1H-pyrazolo[3,4-b]pyridin-5-yl)pyridin-3-yl)acetamide] | ≤ 9
17 | > 10000 | O=C(Nc1cncc(-c2cnc3[nH]nc(-c4nc5cccnc5[nH]4)c3c2)c1)C1CCCCC1 [Compound 228, N-(5-(3-(3H-Imidazo[4,5-b]pyridin-2-yl)-1H-pyrazolo[3,4-b]pyridin-5-yl)pyridin-3-yl)cyclohexanecarboxamide] | ≤ 9
